The test system of data set [1] is smooth muscle. To be noted: prior knowledge on thiphenamil hydrochloride; cited from earlier work.
Data set [2] has as its system muscarinic receptors. It is filed as binding, rabbit (New Zealand White). Particulars: 1.0 × 10^-5 M compound; 0.1 nM [^3 H]QNB; 37° C., 60 minutes; pH 7.4.
Data set [3] deals with rabbit urinary bladder strip. The data set can be described thus: Relaxation of bethanechol-contracted rabbit urinary bladder strip preparation. Particulars: for inhibition at 100 µM / inhibition at 10 µM / inhibition at 1 µM / inhibition at 0.1 µM / inhibition at 0.01 µM: Oryctolagus cuniculus. The procedure:
The pharmacological actions of three anti-spasmodic compounds were studied in a rabbit urinary bladder strip preparation. In general, longitudinal strips were prepared from the base of freshly isolated rabbit bladders and were then suspended under near-physiological conditions in tissue baths. The strips were attached to force transducers and both contractile and relaxant activity was measured. To measure the relaxant effects on the anti-spasmodic compounds on previously-contracted bladder strips, the strips were initially exposed to the muscarinic receptor agonist bethanechol and allowed to reach a steady level of contractile activity for 20 minutes. At this point cumulative dose-responses to the various compounds were recorded. The rabbit abdomens were opened through a vertical midline incision. […] Tissues were allowed to equilibrate to a tension of 2 gm for sixty minutes during which time buffer was replaced at 20 minute intervals. […] Bethanechol was employed as the representative cholinergic agonist and, following equilibration, was added to the baths for a final concentration of 250 μM. The tissues were allowed 20 minutes to achieve a maintained level of contraction in response to bethanechol and, at this point, cumulative dose-response measurements for three anti-spasmodic compounds were started at concentrations ranging from 10^-8 M to 10^-4 M. Solutions were added in volumes up to 100 μl and were prepared fresh each day by dissolving them in distilled:deionzed water. […]

Where [4] appears, read: 10^-4 moles/liter, bethanechol 250 μM.
The mark [5] stands for this setting: 10^-5 moles/liter, bethanechol 250 μM.
[6] abbreviates: 10^-6 moles/liter, bethanechol 250 μM.
[7] abbreviates: 10^-7 moles/liter, bethanechol 250 μM.
[8] abbreviates: 10^-8 moles/liter, bethanechol 250 μM.
Where [9] appears, read: pH 7.4, read-out: % of maximum relaxation.
[10] abbreviates: read-out: % background relaxation.

Molecules are shown by their SMILES. Structures can show the parent of a compound that is named as a salt. Where two headings read alike, the source gives them in different places.

As for `CCN(CC)CCSC(=O)C(c1ccccc1)c1ccccc1` [Thiphenamil hydrochloride], in data set [1], the atropinic side effects result was “without producing characteristic atropinic side effects on salivary and sweat glands, GI glands, the eye or the cardiovascular system”; the decrease spasm entry is “decrease spasm of the gastrointestinal tract, biliary tract, ureter and uterus”.
Consider `CCN(CC)CCSC(=O)CC(C)(C)C` [t-butyl-acetyl-thio-S-(2-diethylaminoethyl)-ester.HCl], for which the “% inhibition of ^3 H[QNB] binding” value in data set [2] is 76%. Besides, the “Decrease in force of contraction of rabbit bladder strip” value is reported as 1.08 gm in data set [3] (setting [4]); 0.22 gm in data set [3] (setting [5]); 0.03 gm in data set [3] (setting [6]); 0.00 gm in data set [3] (setting [7]); 0.03 gm in data set [3] (setting [8]). Also, the “Increase in length of rabbit bladder strip” value in data set [3] (setting [4]) is given as 3.9 cm; in data set [3] (setting [5]) it was 0.6 cm; in data set [3] (setting [6]), 0.1 cm; in data set [3] (setting [7]) it was 0.0 cm; in data set [3] (setting [8]), 0.1 cm. Moreover, the inhibition at 100 µM came to 98% in data set [3] (pH 7.4, 10^-4 moles/liter, bethanechol 250 μM, maximal = pre-bethanechol baseline, read-out: % of maximum relaxation) and 80% in data set [3] (10^-4 moles/liter, bethanechol 250 μM, read-out: % background relaxation). For the same molecule, the inhibition at 10 µM in data set [3] (pH 7.4, 10^-5 moles/liter, bethanechol 250 μM, maximal = pre-bethanechol baseline, read-out: % of maximum relaxation) was 15%; in data set [3] (10^-5 moles/liter, bethanechol 250 μM, read-out: % background relaxation), 1.3%. Moreover, the inhibition at 1 µM was found to be 2.5% in data set [3] (pH 7.4, 10^-6 moles/liter, bethanechol 250 μM, maximal = pre-bethanechol baseline, read-out: % of maximum relaxation) and 0% in data set [3] (10^-6 moles/liter, bethanechol 250 μM, read-out: % background relaxation). Besides, the inhibition at 0.1 µM in data set [3] (pH 7.4, 10^-7 moles/liter, bethanechol 250 μM, maximal = pre-bethanechol baseline, read-out: % of maximum relaxation) is 0%; in data set [3] (10^-7 moles/liter, bethanechol 250 μM, read-out: % background relaxation), 0%. The inhibition at 0.01 µM was 2.5% in data set [3] (pH 7.4, 10^-8 moles/liter, bethanechol 250 μM, maximal = pre-bethanechol baseline, read-out: % of maximum relaxation) and 0% in data set [3] (10^-8 moles/liter, bethanechol 250 μM, read-out: % background relaxation).
Regarding `CCN(CC)CCSC(=O)C(C)(C)C` [trimethylacetyl-thio-S-(2-diethylaminoethyl)-ester.HCl], in data set [2], the “% inhibition of ^3 H[QNB] binding” value is 66%. Moreover, the “Decrease in force of contraction of rabbit bladder strip” value amounted to 0.82 gm in data set [3] (setting [4]); 0.40 gm in data set [3] (setting [5]); 0.38 gm in data set [3] (setting [6]); 0.38 gm in data set [3] (setting [7]); 0.00 gm in data set [3] (setting [8]). The “Increase in length of rabbit bladder strip” value in data set [3] (setting [4]) turned out to be 4.1 cm; in data set [3] (setting [5]) it was 2.0 cm; in data set [3] (setting [6]), 1.9 cm; in data set [3] (setting [7]) it was 1.9 cm; in data set [3] (setting [8]), 0.0 cm. In addition, the inhibition at 0.01 µM in data set [3] (setting [9]) and in data set [3] (setting [10]) was 0% in each case. Moreover, the inhibition at 0.1 µM in data set [3] (setting [9]) is 16.5%; in data set [3] (setting [10]), 14.1%. Further, the results for the inhibition at 1 µM in data set [3] (setting [9]) and in data set [3] (setting [10]) were 16.5% and 14.1%, respectively. Further, the inhibition at 10 µM in data set [3] (setting [9]) is 16.5%; in data set [3] (setting [10]), 14.1%. In addition, the inhibition at 100 µM in data set [3] (setting [9]) was 35.7%; in data set [3] (setting [10]), 29.7%.

(Values after patent US4647562A, “Anti-spasmodic agents having three branch chains” (United Pharmaceuticals, Inc., priority 1985, dated 1987).)
